Assays:
[1] = tested on: HSV-2 (MS strain); test: External genital lesion development in primary genital HSV-2 infection of guinea pigs; type: in vivo, Female Hartley strain guinea pigs; design: key to Lesion Score-Day Area Under Curve: area under 0-5+ lesion score vs day curve (score-days); key to Mean Peak Lesion Score: lesion severity on 0-5+ scale; settings: 20 mg/ml
Experimental: (§1) A series of studies were carried out to compare the activity of inventive antiviral Compounds 23, 76, and 82 in a primary genital HSV-2 infection of guinea pigs. The experiments were placebo-controlled and uninfected animals were treated with three concentrations of each of the preparations to assess skin irritation and determine the maximum tolerated dose.
(§2) The MS strain of HSV-2 was utilized for the experimental animal infection. Female Hartley strain guinea pigs (Charles River Breeding Laboratories, Kingston, N.Y.) weighing 250-300 g were inoculated intravaginally with 1.4×10^5 plaque forming units of HSV-2 one hour after being swabbed for the removal of vaginal secretions.
(§3) Groups of 10 infected guinea pigs were treated topically as stated above with 20 mg/ml (the maximum tolerated dose) of each compound beginning 6 h or 24 h after inoculation with HSV-2.
To determine the effect of therapy on the development and spread of external genital lesions, lesion severity was scored on a 0-5+ scale through the primary infection (21 days). Mean peak lesion scores and the areas under the lesion score-day curves were calculated and analyzed.
(§4) The number of animals infected over the number inoculated, lesion score-day areas and virus titer-day areas under the curve, peak lesion scores and peak virus titers between untreated and placebo-treated or placebo-treatedand drug-treated animals were compared using the Mann-Whitney U rank sum test. A p-value of 0.05 or less was considered significant.

[2] = tested on: HSV-2 (MS strain); test: Vaginal virus replication in primary genital HSV-2 infection of guinea pigs; type: in vivo, Female Hartley strain guinea pigs; settings: for # Infected/# Inoculated / Mean Peak Virus Titer / P-Value for Mean Peak Virus Titer / Virus Titer-Day Area Under Curve: 20 mg/ml; for infectivity rate: treatment beginning 6 h after infection
Experimental: as §1, §2, §3
To determine the effect of treatment on vaginal virus replication, swabs of vaginal secretions were obtained on days 1, 3, 5, 7, and 10 after HSV-2 inoculation, placed in a tube containing 2.0 ml of media, vortexed and frozen at -70° until titrated for HSV-2. When all samples were collected, they were thawed, diluted serially and HSV-2 titers were determined using rabbit kidney cells in a microtiter CPE assay. Mean peak virus titers and areas under the virus titer-day curves were calculated and analyzed.
as §4

[3] = tested on: HSV-1; test: HSV-1 plaque reduction assay; type: cell-based; design: IC50: unit not given beside the values; settings: for IC50: toxicity IC50
Experimental: (§5) Two days prior to use, HFF cells are plated into six well plates and incubated at 37° C. with 5% CO2 and 90% humidity. On the date of assay, the drug is made up at twice the desired concentration in 2×MEM and then serially diluted 1:5 in 2×MEM using six concentrations of drug. The initial starting concentration is usually 200 μg/ml down to 0.06 μg/ml. The virus to be used is diluted in MEM containing 10% FBS to a desired concentration which will give 20-30 plaques per well. The media is then aspirated from the wells and 0.2 ml of virus is added to each well in duplicate with 0.2 ml of media being added to drug toxicity wells. The plates are then incubated for one hour with shaking every fifteen minutes. After the incubation period, an equal amount of 1% agarose was added to a equal volume of each drug dilution. This will give final drug concentrations beginning with 100 μg/ml and ending with 0.03 μg/ml and a final agarose overlay concentration of 0.5%. The drug agarose mixture is applied to each well in 2 ml volume and the plates then incubated for three days, after which the cells were stained with a 1.5% solution of neutral red. At the end of 4-6 hr incubation period, the stain is aspirated, and plaques counted using a stereomicroscope at 1×magnification.
(§6) The procedure for the liquid overlay plaque assay is similar to that using the agarose overlay. The procedure for adding the virus is the same as for the regular plaque assay. The drugs are made up in a concentration to be used in MEM with 2% FBS. The drugs are not made up at 2×concentration as in previous assays but are made up at the desired concentration. For HSV-1 and HSV-2 assays, an antibody preparation obtained from Baxter Health Care Corporation is diluted 1:500 and added to the media that the drug is diluted in. For CMV and VZV, no antibody in the overlay is utilized. For the CMV assay, additional medium without new drug is added on day six and allowed to incubate for a total of 11 days. For VZV, additional media is added on day five and incubated for a total of eight days. At the end of the incubation period for all of the assays, the medium is removed, the cells washed and then stained with 0.1% crystal violet solution for ten minutes. The cells are then rinsed several times to remove any excess crystal violet and plaques enumerated using a stereomicroscope.
(§7) I. EC50 values were also determined for each of the viruses tested for known antiviral agents. The comparison compound was ACV for all viruses except for HCMV aherein DHPG was the comparison compound. In Table 26, these comparison EC50 values are indicated with an asterisk. In Table 27, the drug FIAU (2'-fluoro-5-iodo-arabinosyl-uracil) was used as a control.

[4] = tested on: HSV-2; test: HSV-2 plaque reduction assay; type: cell-based; design: unit not given beside the values; settings: for IC50: toxicity IC50
Experimental: as §5, §6, §7

SMILES | Lesion Score-Day Area Under Curve ([1]; started +6h) | Mean Peak Lesion Score ([1]; started +6h) | P-Value for Mean Peak Lesion Score ([1]; started +6h) | Lesion Score-Day Area Under Curve ([1]; started +24h) | Mean Peak Lesion Score ([1]; started +24h) | # Infected/# Inoculated ([2]; started +6h) | Mean Peak Virus Titer ([2]; started +6h) | P-Value for Mean Peak Virus Titer ([2]; started +6h) | Virus Titer-Day Area Under Curve ([2]; started +6h) | # Infected/# Inoculated ([2]; started +24h) | Mean Peak Virus Titer ([2]; started +24h) | Virus Titer-Day Area Under Curve ([2]; started +24h) | infectivity rate [2] [%] | EC50 [3] | IC50 [3] | EC50 [4] | IC50 [4] | effect on virus titer AUC ([2]; started +24 h)
CC1=CC(C)=[N+]2CC[N+]3=C(C)C=C(C)[O][Co-3]23([NH3+])([NH3+])[O]1.[Cl-] [Compound 23, reference compound] | 0.0 | 0.0 | < 0.001 | 43.8 | 3.4 | 5/10 | 1.1 | < 0.001 | 1.7 | 10/10 | 4.1 | 14.5 | 50 | > 4 | 7.0 | > 4 | 7.0 | 
CC([O-])=CC(C)=NCCN=C(C)C=C(C)[O-].[Cl-].[Co+3].c1c[nH]cn1.c1c[nH]cn1 [Compound 82] | 3.5 | 0.7 | < 0.001 | 53.8 | 3.4 | 5/10 | 1.1 | < 0.001 | 3.3 | 10/10 | 4.6 | 26.4 | 50 |  |  |  |  | failed to alter the virus titer AUC
CC([O-])=CC(C)=NCCN=C(C)C=C(C)[O-].Cc1ncc[nH]1.Cc1ncc[nH]1.[Br-].[Co+3] [Compound 96] |  |  |  |  |  |  |  |  |  |  |  |  |  | > 4 | 10.2 | > 4 | 10.2 | 

From patent US5756491A, “Antiviral cobalt-organic compounds” (priority 1991, dated 1998)
